Results reported in patent publication US7812172B2, “Thiazolothiazole derivative” (Fuji Xerox Co., Ltd., priority 2008, dated 2010).
Like-named read-outs stand apart in the source and are kept apart here.

Assay: Evaluation of solubility of thiazolothiazole derivatives in organic solvents
Type: physicochemical
Settings: for solubility: organic solvent or mixture, thermodynamic from solid, 25° C., else heated to boiling temperature, naked eye
Description: In the present exemplary embodiment, the term “dissolve” refers to a state in which, after the thiazolothiazole derivative according to the present exemplary embodiment is added to an organic solvent, no crystal is observed by observation with the naked eye. The term “high solubility” or “good solubility” refers to such properties that the thiazolothiazole derivative dissolves at the boiling temperature of the organic solvent.
The solubility test is performed as follows:
10 mg (1.0 weight %) of an exemplary compound to be tested is dissolved in 1 ml of a solvent (such as dichlorobenzene, monochlorobenzene, chloroform, THF, toluene or xylene). […] The degree of dissolution is observed with the naked eye.
A: dissolves even when heating is not conducted
B: completely dissolves when heating is conducted
C: a large proportion thereof dissolves when heating is conducted
D: a small proportion thereof dissolves when heating is conducted

[1] = 10 mg (1.0 weight %) in 1 ml THF, read-out: Solubility THF
[2] = 10 mg (1.0 weight %) in 1 ml chloroform, read-out: Solubility Chloroform
[3] = 10 mg (1.0 weight %) in 1 ml dichlorobenzene, read-out: Solubility Dichlorobenzene
[4] = 10 mg (1.0 weight %) in 1 ml monochlorobenzene, read-out: Solubility Monochlorobenzene
[5] = 10 mg (1.0 weight %) in 1 ml toluene, read-out: Solubility Toluene
[6] = 10 mg (1.0 weight %) in 1 ml xylene, read-out: Solubility Xylene

Row | Structure (SMILES) | solubility [1] [µg/mL] | solubility [2] [µg/mL] | solubility [3] [µg/mL] | solubility [4] [µg/mL] | solubility [5] [µg/mL] | solubility [6] [µg/mL] | Solubility in organic solvents (in words) (organic solvents, general statement)
1 | CCCCOc1ccc(-c2ccc(-c3nc4sc(-c5ccc(-c6ccc(OCCCC)cc6)s5)nc4s3)s2)cc1 [Exemplary Compound (11)] | < 10000 | < 10000 | < 10000 | < 10000 | < 10000 | < 10000 | 
2 | CCCCc1ccc(-c2ccc(-c3nc4sc(-c5ccc(-c6ccc(CCCC)cc6)s5)nc4s3)s2)cc1 [Exemplary Compound (1)] | < 10000 | < 10000 | < 10000 | < 10000 | < 10000 | < 10000 | 
3 | c1csc(-c2ccc(-c3nc4sc(-c5ccc(-c6cccs6)s5)nc4s3)s2)c1 [Compound 3, reference compound] | < 10000 | < 10000 | < 10000 | < 10000 | < 10000 | < 10000 | hardly dissolves
4 | CC(C)(C)c1ccc(-c2ccc(-c3nc4sc(-c5ccc(-c6ccc(C(C)(C)C)cc6)s5)nc4s3)s2)cc1 [Exemplary Compound (15)] | < 10000 | < 10000 | < 10000 | < 10000 | < 10000 | < 10000 | 

More lines, now with the values ahead:

Row | solubility [1] [µg/mL] | solubility [2] [µg/mL] | solubility [3] [µg/mL] | solubility [4] [µg/mL] | solubility [5] [µg/mL] | solubility [6] [µg/mL] | Solubility in organic solvents (in words) (organic solvents, general statement) | Structure (SMILES)
5 | > 10000 | < 10000 | > 10000 | > 10000 | < 10000 | < 10000 |  | CCCCCCCCc1ccc(-c2cc(C)c(-c3nc4sc(-c5sc(-c6ccc(CCCCCCCC)cc6)cc5C)nc4s3)s2)cc1 [Exemplary Compound (8)]
6 | > 10000 | > 10000 | > 10000 | > 10000 | > 10000 | > 10000 |  | CCCCCCCCc1cc(-c2ccc(CCCC)cc2)sc1-c1nc2sc(-c3sc(-c4ccc(CCCC)cc4)cc3CCCCCCCC)nc2s1 [Exemplary Compound (25)]
7 | > 10000 | > 10000 | > 10000 | > 10000 | > 10000 | > 10000 |  | CCCCCCCCc1ccc(-c2cc(CCCCCCCC)c(-c3nc4sc(-c5sc(-c6ccc(CCCCCCCC)cc6)cc5CCCCCCCC)nc4s3)s2)cc1 [Exemplary Compound (27)]
8 | > 10000 | > 10000 | > 10000 | > 10000 | > 10000 | > 10000 |  | CCCCCCCCCCCCc1ccc(-c2cc(CCCCCCCC)c(-c3nc4sc(-c5sc(-c6ccc(CCCCCCCCCCCC)cc6)cc5CCCCCCCC)nc4s3)s2)cc1 [Exemplary Compound (28)]
